Assay results published in PubChem BioAssay AID330 (DTP/NCI, 2004).
Where “and” joins values, the source holds several entries; their conditions need not be identical. Identical values can stand only once. Inconclusive results and toxic doses are left out. Peptide text beside a SMILES is read from it. * marks the point of attachment. Propionyl = CCC(=O)*; Bn = c1ccc(C*)cc1

Test system: P388 leukemia ip, CD2F1 mice, survival T/C
Test: NCI In Vivo Anticancer Drug Screen. Data for tumor model P388 Leukemia (intraperitoneal) in CD2F1 (CDF1) mice
Conditions: endpoint: median survival time, higher = longer survival
Summary of the method: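 Mice carrying the transplanted tumor received test compound or vehicle. Survival was recorded in each group, and the value is the treated-group measurement divided by that of the vehicle-treated control group.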

[1] = dose: 50.0 mg/kg/injection, schedule: Q01DX005 (ip), vehicle: saline with Tween-80
[2] = dose: 100.0 mg/kg/injection, schedule: Q01DX005 (ip), vehicle: saline with Tween-80
[3] = dose: 200.0 mg/kg/injection, schedule: Q01DX005 (ip), vehicle: saline with Tween-80
[4] = dose: 25.0 mg/kg/injection, schedule: Q01DX009 (ip), vehicle: Klucel (hydroxypropylcellulose) (HPC)
[5] = dose: 50.0 mg/kg/injection, schedule: Q01DX009 (ip), vehicle: Klucel (hydroxypropylcellulose) (HPC)
[6] = dose: 50.0 mg/kg/injection, schedule: Q01DX009 (ip), vehicle: saline
[7] = dose: 100.0 mg/kg/injection, schedule: Q01DX009 (ip), vehicle: saline
[8] = dose: 200.0 mg/kg/injection, schedule: Q01DX009 (ip), vehicle: saline
[9] = dose: 60.0 mg/kg/injection, schedule: Q01DX005 (ip), vehicle: saline with Tween-80
[10] = dose: 120.0 mg/kg/injection, schedule: Q01DX005 (ip), vehicle: saline with Tween-80
[11] = dose: 240.0 mg/kg/injection, schedule: Q01DX005 (ip), vehicle: saline with Tween-80
[12] = dose: 50.0 mg/kg/injection, schedule: Q01DX005 (ip), vehicle: Klucel (hydroxypropylcellulose) (HPC)
[13] = dose: 100.0 mg/kg/injection, schedule: Q01DX005 (ip), vehicle: Klucel (hydroxypropylcellulose) (HPC)
[14] = dose: 200.0 mg/kg/injection, schedule: Q01DX005 (ip), vehicle: Klucel (hydroxypropylcellulose) (HPC)
[15] = dose: 60.0 mg/kg/injection, schedule: Q01DX005 (ip), vehicle: saline
[16] = dose: 120.0 mg/kg/injection, schedule: Q01DX005 (ip), vehicle: saline
[17] = dose: 240.0 mg/kg/injection, schedule: Q01DX005 (ip), vehicle: saline
[18] = dose: 50.0 mg/kg/injection, schedule: Q01DX009 (ip), vehicle: saline with Tween-80
[19] = dose: 100.0 mg/kg/injection, schedule: Q01DX009 (ip), vehicle: saline with Tween-80
[20] = dose: 200.0 mg/kg/injection, schedule: Q01DX009 (ip), vehicle: saline with Tween-80
[21] = dose: 100.0 mg/kg/injection, schedule: Q01DX009 (ip), vehicle: Klucel (hydroxypropylcellulose) (HPC)
[22] = dose: 200.0 mg/kg/injection, schedule: Q01DX009 (ip), vehicle: Klucel (hydroxypropylcellulose) (HPC)

C[n+]1c2ccccc2c2c3c(cccc31)C(=O)c1cc(Cl)ccc1-2 (tested in a mixture with another compound)
T/C (dose: 3.12 mg/kg/injection, schedule: Q01DX009 (ip), vehicle: water): 106 % of control
T/C (dose: 6.25 mg/kg/injection, schedule: Q01DX009 (ip), vehicle: water): 98 % of control
T/C (dose: 12.5 mg/kg/injection, schedule: Q01DX009 (ip), vehicle: water): 98 % of control

Cc1ccc2c(c1)S(=O)(=O)c1ccc3ccccc3c1N2
T/C [1]: 101 % of control
T/C [2]: 99 % of control
T/C [3]: 100 % of control

CCOc1ccc(/C=C(\C(=O)c2ccccc2)S(=O)(=O)c2ccc(OC)cc2)cc1OC
T/C [1]: 92 % of control
T/C [2]: 92 % of control

C1=C(CC2=C[P+](c3ccccc3)(c3ccccc3)C=C(c3ccccc3)O2)OC(c2ccccc2)=C[P+]1(c1ccccc1)c1ccccc1
T/C (dose: 0.75 mg/kg/injection, schedule: Q01DX005 (ip), vehicle: saline with Tween-80): 115 % of control
T/C (dose: 3.0 mg/kg/injection, schedule: Q01DX005 (ip), vehicle: saline): 124 % of control

O=c1[nH]c2c(cnn2-c2ccc(Cl)cc2)c(=O)n1-c1cccc(Cl)c1
T/C (dose: 12.5 mg/kg/injection, schedule: Q01DX009 (ip), vehicle: Klucel (hydroxypropylcellulose) (HPC)): 88 % of control
T/C [4]: 94 % of control
T/C [5]: 100 % of control

CC1=NN(c2cc(S(=O)(=O)O)ccc2Cl)C(=O)C1
T/C [6]: 101 % of control
T/C [7]: 105 % of control
T/C [8]: 97 % of control

Nc1nc(NCCCc2ccccc2)c(N=Nc2ccccc2)c(=O)[nH]1
T/C [9]: 105 % of control
T/C [10]: 105 % of control
T/C [11]: 105 % of control

CN(Cc1ccc(Nc2ccccc2)cc1)C1CCCCC1
T/C (dose: 50.0 mg/kg/injection, schedule: Q01DX009 (ip), vehicle: saline + Tween-80 + alcohol): 103 % of control and 106 % of control
T/C (dose: 100.0 mg/kg/injection, schedule: Q01DX009 (ip), vehicle: saline + Tween-80 + alcohol): 110 % of control and 111 % of control
T/C (dose: 200.0 mg/kg/injection, schedule: Q01DX009 (ip), vehicle: saline + Tween-80 + alcohol): 109 % of control and 112 % of control
T/C (dose: 400.0 mg/kg/injection, schedule: Q01DX009 (ip), vehicle: saline + Tween-80 + alcohol): 114 % of control

CC(O)COc1ccccc1P(c1ccccc1)c1ccccc1 (stereo not drawn)
T/C (dose: 25.0 mg/kg/injection, schedule: Q01DX005 (ip), vehicle: Klucel (hydroxypropylcellulose) (HPC)): 104 % of control and 95 % of control
T/C [12]: 104 % of control and 109 % of control and 97 % of control
T/C [13]: 101 % of control and 109 % of control and 91 % of control
T/C [14]: 104 % of control and 92 % of control

Cc1ccc(-[n+]2c3cc(N)c(C)cc3nc3cc(C)c(Nc4ccccc4)cc32)cc1
T/C (dose: 25.0 mg/kg/injection, schedule: Q01DX005 (ip), vehicle: saline + Tween-80 + alcohol): 109 % of control
T/C (dose: 25.0 mg/kg/injection, schedule: Q01DX005 (ip), vehicle: saline with Tween-80): 101 % of control
T/C (dose: 50.0 mg/kg/injection, schedule: Q01DX005 (ip), vehicle: saline + Tween-80 + alcohol): 116 % of control
T/C [1]: 119 % of control and 122 % of control
T/C [2]: 119 % of control and 122 % of control
T/C [3]: 119 % of control

CC(C)(O)c1cccs1
T/C [15]: 100 % of control
T/C [16]: 100 % of control
T/C [17]: 99 % of control

CNc1nc(SC)nc2c1ncn2C1CCCO1 (stereo not drawn)
T/C (dose: 100.0 mg/kg/injection, schedule: Q04DX002 (ip), vehicle: saline with Tween-80): 98 % of control
T/C (dose: 200.0 mg/kg/injection, schedule: Q04DX002 (ip), vehicle: saline with Tween-80): 95 % of control
T/C (dose: 400.0 mg/kg/injection, schedule: Q04DX002 (ip), vehicle: saline with Tween-80): 95 % of control

C[N+](C)(CC(=O)Nc1cccc(C(F)(F)F)c1)CC(=O)Nc1cccc(C(F)(F)F)c1
T/C (dose: 3.13 mg/kg/injection, schedule: Q01DX009 (ip), vehicle: saline sonified): 100 % of control
T/C (dose: 6.25 mg/kg/injection, schedule: Q01DX009 (ip), vehicle: saline sonified): 104 % of control
T/C (dose: 12.5 mg/kg/injection, schedule: Q01DX009 (ip), vehicle: saline sonified): 109 % of control

CC(C)=CC(=O)O
T/C [18]: 99 % of control
T/C [19]: 101 % of control
T/C [20]: 100 % of control
T/C (dose: 400.0 mg/kg/injection, schedule: Q01DX009 (ip), vehicle: saline with Tween-80): 90 % of control

CCN(c1ccccc1)S(=O)(=O)c1cc(N)ccc1C
T/C [4]: 101 % of control
T/C [5]: 100 % of control
T/C [21]: 110 % of control
T/C [22]: 97 % of control
T/C (dose: 400.0 mg/kg/injection, schedule: Q01DX009 (ip), vehicle: Klucel (hydroxypropylcellulose) (HPC)): 93 % of control

COC(=O)[CH2][Sn]([CH3])([CH3])[CH2]C(=O)OC
T/C (dose: 12.5 mg/kg/injection, schedule: Q01DX005 (ip), vehicle: saline): 114 % of control
T/C (dose: 25.0 mg/kg/injection, schedule: Q01DX005 (ip), vehicle: saline): 124 % of control
T/C (dose: 50.0 mg/kg/injection, schedule: Q01DX005 (ip), vehicle: saline): 123 % of control

COC(=O)C(O)(/C(=N\O)c1ccccc1)c1ccccc1 (stereo not drawn)
T/C [9]: 97 % of control
T/C [10]: 90 % of control

CC(=O)NC(CCCCN)C(=O)O (stereo not drawn)
T/C [12]: 103 % of control
T/C [13]: 101 % of control
T/C [14]: 102 % of control

O=P1(c2ccccc2)OCC2=C(c3ccccc3)CC2=C1c1ccccc1 (stereo not drawn)
T/C [5]: 105 % of control
T/C [21]: 103 % of control
T/C [22]: 105 % of control

COCOc1cccc2c1C(O)CC2 (stereo not drawn)
T/C [9]: 100 % of control
T/C [10]: 100 % of control
T/C [11]: 98 % of control

C=CCC1C=CC=CN1C(=O)OCC (stereo not drawn)
T/C [15]: 113 % of control
T/C [16]: 113 % of control
T/C [17]: 98 % of control

CN(C)S(=O)(=O)CC(O)C(Cl)(Cl)Cl (stereo not drawn)
T/C [6]: 100 % of control
T/C [7]: 98 % of control
T/C [8]: 98 % of control

CN1CCN(c2ccc([N+](=O)[O-])c3no[n+]([O-])c23)CC1
T/C (dose: 2.5 mg/kg/injection, schedule: Q01DX009 (ip), vehicle: saline): 116 % of control
T/C (dose: 20.0 mg/kg/injection, schedule: Q01DX009 (ip), vehicle: saline): 152 % of control

O=C1C(F)=C(N2CC2)C(=O)C(F)=C1N1CC1
T/C (dose: 1.56 mg/kg/injection, schedule: Q01DX009 (ip), vehicle: saline): 115 % of control
T/C (dose: 3.12 mg/kg/injection, schedule: Q01DX009 (ip), vehicle: saline): 114 % of control
T/C (dose: 6.25 mg/kg/injection, schedule: Q01DX009 (ip), vehicle: saline): 150 % of control

C/C(N)=N\O
T/C [6]: 94 % of control
T/C [7]: 114 % of control
T/C [8]: 104 % of control

CCCCCCCN(CCCCCCC)CC(O)c1c(Br)c2cc(Br)ccc2c2ccc(Br)cc12 (stereo not drawn)
T/C (dose: 1.25 mg/kg/injection, schedule: Q01DX009 (ip), vehicle: saline with Tween-80): 105 % of control
T/C (dose: 2.5 mg/kg/injection, schedule: Q01DX009 (ip), vehicle: saline with Tween-80): 106 % of control
T/C (dose: 5.0 mg/kg/injection, schedule: Q01DX009 (ip), vehicle: saline with Tween-80): 100 % of control

CCC(=O)NC(CSCc1ccccc1)C(=O)NC(CCC(=O)OC)C(=O)OC (stereo not drawn) (Propionyl-Cys(Bn)-Glu(OMe)-OMe; configuration not given here)
T/C [18]: 110 % of control
T/C [19]: 100 % of control
T/C [20]: 97 % of control

O=c1oc2cc(O)ccc2c2oc3ccccc3c12
T/C (dose: 6.2 mg/kg/injection, schedule: Q01DX007 (ip), vehicle: carboxymethylcellulose (CMC)): 91 % of control
T/C (dose: 12.5 mg/kg/injection, schedule: Q01DX007 (ip), vehicle: carboxymethylcellulose (CMC)): 91 % of control
T/C (dose: 25.0 mg/kg/injection, schedule: Q01DX007 (ip), vehicle: carboxymethylcellulose (CMC)): 100 % of control
